Values quoted from earlier work in US11077099B2, “Oral tablet formulation of lenalidomide” (SAMYANG HOLDINGS CORPORATION, priority 2016, dated 2021).

Test system: multiple myeloma
Settings: combination of lenalidomide and dexamethasone; patients with relapses or refractory disease

**Q.** With `Nc1cccc2c1CN(C1CCC(=O)NC1=O)C2=O` (centres unmarked) [lenalidomide] as the compound, how does the disease-free survival time read?
**A.** 13.4 months

**Q.** What about the overall survival of the same compound?
**A.** 38 months
